Results from patent US8669065B1, “Methods for identifying molecules that modulate lipid binding sites of ion channels” (priority 2011, dated 2014).
Values after ≈ are worked out from the molar mass of the structure shown.

Assay: physchem
Details: water
Text: Most native lipids have long fatty acyl side chains rendering them insoluble and difficult to work with in an aqueous environment.

solubility: 50 mM (≈ 21.2 mg/mL)
Structure (SMILES): CCCCCCCC(=O)OC[C@H](COP(=O)(O)O)OC(=O)CCCCCCC [C8-PA]
